This is an account of results in patent publication US11591331B2, “PARP1 inhibitors and uses thereof” (Xinthera, Inc., priority 2021, dated 2023).

The subject of assay [1] is DLD-1 BRCA2(−/−). As to the kind of experiment: Cell growth inhibition assay (CellTiter-Glo cell viability, 7 days). It is filed as cell-based. Particulars: Homo sapiens, 168 h, DLD-1 BRCA2(-/-) cells. Background: ATP-based viability assays read luminescence as a measure of living cells.
The test system of assay [2] is MDA-MB-436 (mutated BRCA1) cell lines. The assay is described as above. It is filed as cell-based. The settings on record: Homo sapiens, 168 h, MDA-MB-436 cells.

One may read the EC50 as the midpoint of the concentration-response curve. Low readings indicate an effect from little substance, high ones a need for much substance. As to `CCc1cc2ncc(CN3CCC(c4cnc(C(=O)NC)c(F)c4)CC3)cc2[nH]c1=O` [Example 23, 5-{1-[(7-ethyl-6-oxo-5H-1,5-naphthyridin-3-yl)methyl]piperidin-4-yl}-3-fluoro-N-methylpyridine-2-carboxamide], the EC50 in assay [1] is 6 nM; in assay [2], 2.2 nM.
The corresponding values for `CCc1cc2ncc(CN3CC(N(C)c4ccc(C(=O)NC)nc4)C3)cc2[nH]c1=O` [Example 26, 5-({1-[(7-ethyl-6-oxo-5H-1,5-naphthyridin-3-yl)methyl]azetidin-3-yl}(methyl)amino)-N-methylpyridine-2-carboxamide] are 33 nM and 39 nM.
The corresponding values for `CNC(=O)c1ccc(N2CCN(Cc3cnc4cc(C)c(=O)[nH]c4c3)CC2)c(C#N)n1` [Example 37] are 1.4 nM and 0.5 nM.
`CNC(=O)c1ccc(N2CCN(Cc3cnc4cc(C)c(=O)[nH]c4c3)CC2)c(C#N)c1` [Example 38]: the EC50 in assay [1] was 7.6 nM; in assay [2], 5.3 nM.
The corresponding values for `CCc1cc2ncc(CN3CCN(c4cnc(C(=O)NC)c(F)c4)[C@H](C)C3)cc2[nH]c1=O` [Example 39] are 3.3 nM and 2.7 nM.
As for `CCc1cc2ncc(CN3CCN(c4ccc(C(=O)NC[C@@H]5CCOC5)nc4)CC3)cc2[nH]c1=O` [Example 40], the EC50 in assay [1] worked out at 6.7 nM; in assay [2], 4.4 nM.
Take `CCc1cc2ncc(CN3CCN(c4ccc(C(=O)NC[C@H]5CCOC5)nc4)CC3)cc2[nH]c1=O` [Example 41]: the EC50 in assay [1] is 2.4 nM; in assay [2] it was 1.9 nM.
The corresponding values for `CCc1cc2ncc(CN3CCN(c4ccc(C(=O)NCCOC)nc4)CC3)cc2[nH]c1=O` [Example 42] are 3.3 nM and 4.1 nM.
The corresponding values for `CCc1cc2ncc(CN3CCN(c4ccc(C(=O)NC(C)C)nc4)CC3)cc2[nH]c1=O` [Example 43] are 2.4 nM and 3.2 nM.
The corresponding values for `CCc1cc2ncc(CN3CCN(c4ccc(C(=O)NC5CCOCC5)nc4)CC3)cc2[nH]c1=O` [Example 44] are 7.4 nM and 5.3 nM.
Consider `CCc1cc2ncc(CN3CCN(c4ccc(C(=O)N[C@H]5C[C@@](C)(O)C5)nc4)CC3)cc2[nH]c1=O` [Example 45], for which the EC50 in assay [1] turned out to be 16 nM; in assay [2], 4.3 nM.
The corresponding values for `CCc1cc2ncc(CN3CCN(c4ccc(C(=O)NC5COC5)nc4)CC3)cc2[nH]c1=O` [Example 46] are 3.7 nM and 1.2 nM.
The corresponding values for `CCc1cc2ncc(CN3CCN(c4ccc(C(=O)N[C@H]5CCOC5)nc4)CC3)cc2[nH]c1=O` [Example 47] are 7.7 nM and 3.3 nM.
The corresponding values for `CCc1cc2ncc(CN3CCN(c4ccc(C(=O)N[C@@H]5CCOC5)nc4)CC3)cc2[nH]c1=O` [Example 48] are 2.7 nM and 1.7 nM.
As to `CCc1cc2ncc(CN3CCN(c4ccc(C(=O)N[C@H]5CCC[C@@H]5O)nc4)CC3)cc2[nH]c1=O` [Example 49], the EC50 was found to be 5.5 nM in assay [1] and 2.4 nM in assay [2].
The corresponding values for `CCc1cc2ncc(CN3CCN(c4ccc(C(=O)NCCC#N)nc4)CC3)cc2[nH]c1=O` [Example 50] are 4.5 nM and 2.1 nM.
The corresponding values for `CCc1cc2ncc(CN3CCN(c4cc(F)c(C(=O)NC)cn4)CC3)cc2[nH]c1=O` [Example 51] are 17 nM and 6.4 nM.
For `CCc1cc2ncc(CN3CCN(c4ccc(C(=O)NCC(C)(C)O)nc4)CC3)cc2[nH]c1=O` [Example 52], the results for the EC50 in assay [1] and in assay [2] were 12 nM and 4 nM, respectively.
Regarding `CCc1cc2ncc(CN3CCN(c4ccc(C(=O)N[C@H]5C[C@](C)(O)C5)nc4)CC3)cc2[nH]c1=O` [Example 55], the values for the EC50 in assay [1] and in assay [2] were 11 nM and 1.4 nM, respectively.
For the compound `CCc1cc2ncc(CN3CCN(c4ccc(C(=O)NC[C@@H](C)O)nc4)CC3)cc2[nH]c1=O` [Example 57], the EC50 in assay [1] was found to be 11 nM; in assay [2] it was 3.6 nM.
For the compound `CCc1cc2ncc(CN3CCN(c4ccc(C(=O)N[C@H]5C[C@@H](C#N)C5)nc4)CC3)cc2[nH]c1=O` [Example 58], the results for the EC50 in assay [1] and in assay [2] were 3.5 nM and 0.9 nM, respectively.
For `CCc1cc2ncc(CN3CCN(c4ccc(C(=O)N[C@H](C)CO)nc4)CC3)cc2[nH]c1=O` [Example 59], the EC50 was 16 nM in assay [1] and 7.8 nM in assay [2].
The corresponding values for `CCc1cc2ncc(CN3CCN(c4ccc(C(=O)NC[C@@H](C)OC)nc4)CC3)cc2[nH]c1=O` [Example 60] are 14 nM and 5 nM.
Turning to `CCc1cc2ncc(CN3CCN(c4ccc(C(=O)NC)nn4)CC3)cc2[nH]c1=O` [Example 61], the EC50 in assay [1] stood at 6.3 nM; in assay [2], 4.8 nM.
The corresponding values for `Cc1cc2ncc(CN3CCN(c4ccc(C(=O)NC5CC5)nc4)CC3)cc2[nH]c1=O` [Example 63] are 9.3 nM and 3.2 nM.
The corresponding values for `CNC(=O)c1ccc(C2=CCN(Cc3cnc4cc(C5CC5)c(=O)[nH]c4c3)CC2)cn1` [Example 64] are 0.92 nM and 0.64 nM.
The corresponding values for `CCc1cc2ncc(CN3CCN(c4ccc(C(=O)NC)c(=O)n4C)CC3)cc2[nH]c1=O` [Example 65] are 13 nM and 3.1 nM.
For `CNC(=O)c1ccc(N2CCN(Cc3cnc4cc(C)c(=O)[nH]c4c3)C[C@H]2C)c(C#N)n1` [Example 66], the figures for the EC50 in assay [1] and in assay [2] were 4.1 nM and 1.7 nM, respectively.
The corresponding values for `[2H]C([2H])([2H])NC(=O)c1ccc(N2CCN(Cc3cnc4cc(C5CC5)c(=O)[nH]c4c3)CC2)cn1` [Example 67] are 1.8 nM and 1.1 nM.
The corresponding values for `CCc1cc2ncc(CN3CCN(c4ccc(-c5cnc[nH]5)c(F)c4)CC3)cc2[nH]c1=O` [Example 70] are 5.5 nM and 2.6 nM.
The corresponding values for `CNC(=O)c1ncc(N2CCN(Cc3ccc4c5c(c(=O)[nH]c4c3)CCO5)CC2)cc1F` [Example 71] are 13 nM and 5.9 nM.
Regarding `[2H]C([2H])([2H])NC(=O)c1ccc(N2CCN(Cc3ccc4c5c(c(=O)[nH]c4c3)CCO5)CC2)cn1` [Example 73], the EC50 was found to be 4.2 nM in assay [1] and 2.2 nM in assay [2].
The corresponding values for `CNC(=O)c1ccc(N2CCN(Cc3cnc4cc(C5CC5)c(=O)[nH]c4c3)C[C@H]2C)cn1` [Example 74] are 7.8 nM and 3.9 nM.
The corresponding values for `CCc1cc2ncc(CN3CCN(c4ccc(NC(=O)C5CC5)nc4)CC3)cc2[nH]c1=O` [Example 75] are 2.6 nM and 1.5 nM.
On to `CNC(=O)c1ccc2c(n1)OC[C@@H]1CN(Cc3cnc4cc(C)c(=O)[nH]c4c3)CCN21` [Example 77], for which the EC50 amounted to 8.5 nM in assay [1] and 5.8 nM in assay [2].
The corresponding values for `CNC(=O)c1ccc2c(n1)OC[C@@H]1CN(Cc3cnc4cc(C5CC5)c(=O)[nH]c4c3)CCN21` [Example 78] are 2.8 nM and 1.8 nM.
The corresponding values for `CCc1cc2ncc(CN3CCN(c4ccc(C(=O)NC5COC5)nc4)[C@H](C)C3)cc2[nH]c1=O` [Example 79] are 9.6 nM and 3.7 nM.
The corresponding values for `Cc1cc2ncc(CN3CCN(c4ccc(C(=O)NC5COC5)c(F)c4)CC3)cc2[nH]c1=O` [Example 80] are 37 nM and 9.8 nM.
Regarding `O=C(NC1COC1)c1ccc(N2CCN(Cc3cnc4cc(C5CC5)c(=O)[nH]c4c3)CC2)cn1` [Example 81], the EC50 amounted to 5.9 nM in assay [1] and 4.5 nM in assay [2].
For the compound `CCc1cc2ncc(CN3CCN(c4ccccn4)CC3)cc2[nH]c1=O` [Example 82, 3-ethyl-7-{[4-(pyridin-2-yl)piperazin-1-yl]methyl}-1H-1,5-naphthyridin-2-one], the figures for the EC50 in assay [1] and in assay [2] were 10 nM and 7.8 nM, respectively.
Take `C#Cc1ccc(N2CCN(Cc3cnc4cc(CC)c(=O)[nH]c4c3)CC2)nc1` [Example 83]: the EC50 in assay [1] was 1.5 nM; in assay [2], 1.4 nM.
The corresponding values for `CNC(=O)c1ccc(N2CCN(Cc3cnc4c5c(c(=O)[nH]c4c3)CCC5)CC2)cn1` [Example 84] are 2.2 nM and 2 nM.
`CCc1cc2nnc(CN3CCN(c4ccc(C(=O)NC)nc4)CC3)cc2[nH]c1=O` [Example 86]: the values for the 50% effective concentration (EC50) in assay [1] and in assay [2] were 6 nM and 6.1 nM, respectively.
The corresponding values for `CCc1nc2cnc(CN3CCN(c4ccc(C(=O)NC)nc4)CC3)cc2[nH]c1=O` [Example 87] are 6.5 nM and 5.3 nM.
Regarding `CCc1cc2ccc(CN3CCN(c4ccc(C(=O)NC)c(=O)n4C)CC3)cc2[nH]c1=O` [Example 89], the EC50 in assay [1] worked out at 3.5 nM; in assay [2], 2.5 nM.
The corresponding values for `CCc1nc2ncc(CN3CCN(c4ccc(C(=O)NC)nc4)CC3)cc2[nH]c1=O` [Example 91] are 13 nM and 13 nM.
The corresponding values for `CCc1cc2ncc(CN3CCN(c4ccc(-n5cccn5)nc4)CC3)cc2[nH]c1=O` [Example 92] are 11 nM and 10 nM.
The corresponding values for `[2H]C([2H])([2H])NC(=O)c1ccc(N2CCN(Cc3cnc4cc(CC)c(=O)[nH]c4c3)C[C@H]2C)c(C#N)n1` [Example 93] are 1.7 nM and 0.84 nM.
On to `CNC(=O)c1ccc2c(c1F)OC[C@@H]1CN(Cc3cnc4cc(C)c(=O)[nH]c4c3)CCN21` [Example 94], for which the EC50 is 39 nM in assay [1] and 41 nM in assay [2].
The corresponding values for `CNC(=O)c1ccc(N2CCN(Cc3cnc4c(C)c(C)c(=O)[nH]c4c3)CC2)cn1` [Example 95] are 3.9 nM and 2.9 nM.
Consider `CNC(=O)c1ccc(N2CCN(Cc3cnc4cc(C5CC5)c(=O)[nH]c4c3)CC2)c(C#N)n1` [Example 97], for which the figures for the EC50 in assay [1] and in assay [2] were 1.5 nM and 0.71 nM, respectively.
With `CNC(=O)c1ncc(N2CCN(Cc3cnc4cc(C5CC5)c(=O)[nH]c4c3)CC2)cc1F` [Example 100], the EC50 in assay [1] was determined as 3.9 nM; in assay [2] it was 2.6 nM.
